From ChEMBL document CHEMBL1129665, “2-Sulfonyl-4-chloroanilino moiety: a potent pharmacophore for the anti-human immunodeficiency virus type 1 activity of pyrrolyl aryl sulfones” (J Med Chem, 1996)

Biological target: Human immunodeficiency virus type 2 pol protein (Human immunodeficiency virus 2, UniProt P88142)
Experiment: Inhibitory activity against HIV rRT activity in HIV-2
Conditions: not given

Human immunodeficiency virus type 2 pol protein, sequence (P88142 whole entry): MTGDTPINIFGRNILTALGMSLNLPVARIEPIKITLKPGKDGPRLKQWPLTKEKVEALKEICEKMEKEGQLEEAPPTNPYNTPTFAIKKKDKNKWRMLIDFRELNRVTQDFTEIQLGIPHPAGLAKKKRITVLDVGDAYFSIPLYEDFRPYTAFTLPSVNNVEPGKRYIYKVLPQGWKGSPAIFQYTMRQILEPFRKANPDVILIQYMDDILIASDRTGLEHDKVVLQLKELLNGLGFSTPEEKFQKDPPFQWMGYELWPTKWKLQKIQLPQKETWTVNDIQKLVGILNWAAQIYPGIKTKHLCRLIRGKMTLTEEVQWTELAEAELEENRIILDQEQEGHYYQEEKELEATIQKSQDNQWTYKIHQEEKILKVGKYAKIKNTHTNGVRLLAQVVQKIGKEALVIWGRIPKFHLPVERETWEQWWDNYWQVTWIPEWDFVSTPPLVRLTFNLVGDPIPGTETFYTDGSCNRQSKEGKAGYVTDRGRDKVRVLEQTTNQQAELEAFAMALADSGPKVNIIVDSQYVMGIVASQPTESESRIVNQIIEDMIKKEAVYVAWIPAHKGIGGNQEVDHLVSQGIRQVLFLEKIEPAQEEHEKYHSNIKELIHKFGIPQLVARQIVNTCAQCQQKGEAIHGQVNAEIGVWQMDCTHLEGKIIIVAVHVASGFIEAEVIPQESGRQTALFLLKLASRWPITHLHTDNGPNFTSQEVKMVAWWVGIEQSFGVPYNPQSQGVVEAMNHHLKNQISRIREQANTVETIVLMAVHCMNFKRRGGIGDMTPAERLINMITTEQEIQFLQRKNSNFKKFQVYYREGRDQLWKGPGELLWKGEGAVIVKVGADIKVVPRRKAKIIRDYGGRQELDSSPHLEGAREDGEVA

| SMILES | IC50 [µM] |
| --- | --- |
| CCOC(=O)c1cccn1S(=O)(=O)c1cc(Cl)ccc1NC(=O)CC | > 20 |
| COC(=O)c1cccn1S(=O)(=O)c1cc(Cl)ccc1N | > 20 |
| CC(C)=CCN1Cc2cccc3nc(S)n(c23)C[C@H]1C | > 20 |
| CCOC(=O)c1cccn1S(=O)(=O)c1cc(C)ccc1N | > 20 |
| Cc1ccnc2c1NC(=O)c1cccnc1N2C1CC1 [NEVIRAPINE] | > 20 |
| CCOC(=O)c1cccn1S(=O)(=O)c1cc(Cl)ccc1NC(C)=O | > 20 |
| CCCOC(=O)c1cccn1S(=O)(=O)c1cc(Cl)ccc1N | > 20 |
| CCOC(=O)c1cccn1S(=O)(=O)c1cc(Cl)ccc1N | > 20 |
| CCOC(=O)c1cccn1S(=O)(=O)c1cc(Cl)ccc1NC=O | > 20 |
| CCOC(=O)CC(=O)Nc1ccc(Cl)cc1S(=O)(=O)n1cccc1C(=O)OCC | > 20 |
| C=CCOC(=O)c1cccn1S(=O)(=O)c1cc(Cl)ccc1N | > 20 |
| CCOC(=O)c1cccn1S(=O)(=O)c1cc(C)ccc1[N+](=O)[O-] | > 20 |
| CC(C)OC(=O)c1cccn1S(=O)(=O)c1cc(Cl)ccc1N | > 20 |

Test system: MT4
Experiment: Concentration required to reduce the viability of mock-infected MT-4 cells by 50%
Type: functional
Conditions: Homo sapiens

| SMILES | CC50 [µM] |
| --- | --- |
| Cc1cn([C@H]2C[C@H](N=[N+]=[N-])[C@@H](CO)O2)c(=O)[nH]c1=O [ZIDOVUDINE] | > 20 |
| COC(=O)c1cccn1S(=O)(=O)c1ccccc1[N+](=O)[O-] | > 300 |
| O=[N+]([O-])c1ccc(Cl)c(S(=O)(=O)n2cccc2)c1 | 2 |
| O=[N+]([O-])c1cc(Cl)ccc1S(=O)(=O)n1ccc2ccccc21 | 8 |
| COC(=O)c1cccn1S(=O)(=O)c1cc(N)ccc1Cl | 150 |
| CCOC(=O)c1cc2ccccc2n1S(=O)(=O)c1cc(Cl)ccc1N | 50 |
| COC(=O)c1cccn1S(=O)(=O)c1ccccc1N | > 300 |
| CCOC(=O)c1cccn1S(=O)(=O)c1cc(Cl)ccc1NC(=O)CC | > 300 |
| COC(=O)c1cccn1S(=O)(=O)c1cc(Cl)ccc1N | > 300 |
| CCOC(=O)c1cccn1S(=O)(=O)c1cc([N+](=O)[O-])ccc1Cl | 6 |
| C=CCOC(=O)c1cccn1S(=O)(=O)c1cc(Cl)ccc1[N+](=O)[O-] | 4.3 |
| CCN(CC)CCOC(=O)c1cccn1S(=O)(=O)c1cc(Cl)ccc1N | 162 |
| CCOC(=O)c1cccn1S(=O)(=O)c1ccccc1N | > 300 |
| CCOC(=O)c1cccn1S(=O)(=O)c1ccc(Cl)cc1[N+](=O)[O-] | > 300 |
| CCOC(=O)c1cccn1S(=O)(=O)c1ccccc1[N+](=O)[O-] | > 300 |
| Nc1ccc(Cl)cc1S(=O)(=O)n1cccc1C(=O)OCc1ccccc1 | > 300 |
| CCOC(=O)c1cccn1S(=O)(=O)c1ccccc1F | 132 |

| SMILES | CC50 [µM] |
| --- | --- |
| CCOC(=O)c1cccn1S(=O)(=O)c1cc(C)ccc1N | > 300 |
| Cc1ccnc2c1NC(=O)c1cccnc1N2C1CC1 [NEVIRAPINE] | < 300 |
| CNc1ccccc1S(=O)(=O)n1cccc1 | > 300 |
| O=[N+]([O-])c1ccc(Cl)cc1S(=O)(=O)n1ccc2ccccc21 | 2 |
| Nc1ccc(Cl)c(S(=O)(=O)n2cccc2)c1 | 91 |
| Nc1cc(Cl)ccc1S(=O)(=O)n1cccc1 | 75 |
| CCOC(=O)c1cccn1S(=O)(=O)c1cc(Cl)ccc1NC(C)=O | > 300 |
| Nc1ccccc1S(=O)(=O)n1ccc2ccccc21 | 58 |
| O=C(O)c1cccn1S(=O)(=O)c1ccccc1Cl | > 300 |
| CCCOC(=O)c1cccn1S(=O)(=O)c1cc(Cl)ccc1N | 110 |
| CCOC(=O)c1cccn1S(=O)(=O)c1cc(Cl)ccc1N | > 300 |
| CCOC(=O)c1cccn1S(=O)(=O)c1cc(Cl)ccc1NC=O | > 300 |
| CCOC(=O)CC(=O)Nc1ccc(Cl)cc1S(=O)(=O)n1cccc1C(=O)OCC | 290 |
| C=CCOC(=O)c1cccn1S(=O)(=O)c1cc(Cl)ccc1N | 100 |
| CCOC(=O)c1cccn1S(=O)(=O)c1cc(C)ccc1[N+](=O)[O-] | > 300 |
| CC(C)OC(=O)c1cccn1S(=O)(=O)c1cc(Cl)ccc1N | > 300 |

Test system: MT4
Experiment: Selectivity index expressed as the ratio of CC50/ EC50
Type: functional, Homo sapiens
Conditions: not given

| SMILES | Ratio |
| --- | --- |
| Cc1cn([C@H]2C[C@H](N=[N+]=[N-])[C@@H](CO)O2)c(=O)[nH]c1=O [ZIDOVUDINE] | >2000 |
| COC(=O)c1cccn1S(=O)(=O)c1ccccc1[N+](=O)[O-] | >60 |
| COC(=O)c1cccn1S(=O)(=O)c1cc(N)ccc1Cl | 2 |
| CCOC(=O)c1cc2ccccc2n1S(=O)(=O)c1cc(Cl)ccc1N | 28 |
| COC(=O)c1cccn1S(=O)(=O)c1ccccc1N | >14 |
| CCOC(=O)c1cccn1S(=O)(=O)c1cc(Cl)ccc1NC(=O)CC | >300 |
| COC(=O)c1cccn1S(=O)(=O)c1cc(Cl)ccc1N | >1666 |
| CCN(CC)CCOC(=O)c1cccn1S(=O)(=O)c1cc(Cl)ccc1N | 13.5 |
| CCOC(=O)c1cccn1S(=O)(=O)c1ccccc1N | >30 |
| CCOC(=O)c1cccn1S(=O)(=O)c1ccc(Cl)cc1[N+](=O)[O-] | >20 |
| CCOC(=O)c1cccn1S(=O)(=O)c1ccccc1[N+](=O)[O-] | >20 |
| Nc1ccc(Cl)cc1S(=O)(=O)n1cccc1C(=O)OCc1ccccc1 | >2 |
| CCOC(=O)c1cccn1S(=O)(=O)c1ccccc1F | 10 |
| CCOC(=O)c1cccn1S(=O)(=O)c1cc(C)ccc1N | >176 |
| CCOC(=O)c1cccn1S(=O)(=O)c1cc(Cl)ccc1NC(C)=O | >=300 |
| Nc1ccccc1S(=O)(=O)n1ccc2ccccc21 | 5 |
| CCCOC(=O)c1cccn1S(=O)(=O)c1cc(Cl)ccc1N | 500 |
| CCOC(=O)c1cccn1S(=O)(=O)c1cc(Cl)ccc1N | >2140 |
| CCOC(=O)c1cccn1S(=O)(=O)c1cc(Cl)ccc1NC=O | >300 |
| CCOC(=O)CC(=O)Nc1ccc(Cl)cc1S(=O)(=O)n1cccc1C(=O)OCC | 111 |
| C=CCOC(=O)c1cccn1S(=O)(=O)c1cc(Cl)ccc1N | 250 |
| CCOC(=O)c1cccn1S(=O)(=O)c1cc(C)ccc1[N+](=O)[O-] | >30.6 |
| CC(C)OC(=O)c1cccn1S(=O)(=O)c1cc(Cl)ccc1N | >2140 |

Biological target: Human immunodeficiency virus type 1 reverse transcriptase (Human immunodeficiency virus 1, UniProt Q72547, L100I)
Experiment: Inhibitory activity against HIV rRT activity in HIV-1 mutant resistant to TIBO(L100I) strain
Conditions: not given

| SMILES | IC50 [µM] |
| --- | --- |
| CCOC(=O)c1cccn1S(=O)(=O)c1cc(Cl)ccc1NC(=O)CC | > 20 |
| COC(=O)c1cccn1S(=O)(=O)c1cc(Cl)ccc1N | 7.4 |
| CC(C)=CCN1Cc2cccc3nc(S)n(c23)C[C@H]1C | > 20 |
| CCOC(=O)c1cccn1S(=O)(=O)c1cc(C)ccc1N | > 20 |
| CCOC(=O)c1cccn1S(=O)(=O)c1cc(Cl)ccc1NC(C)=O | > 20 |
| CCCOC(=O)c1cccn1S(=O)(=O)c1cc(Cl)ccc1N | 10 |
| CCOC(=O)c1cccn1S(=O)(=O)c1cc(Cl)ccc1N | 8.5 |
| CCOC(=O)c1cccn1S(=O)(=O)c1cc(Cl)ccc1NC=O | > 20 |
| CCOC(=O)CC(=O)Nc1ccc(Cl)cc1S(=O)(=O)n1cccc1C(=O)OCC | > 20 |
| C=CCOC(=O)c1cccn1S(=O)(=O)c1cc(Cl)ccc1N | > 20 |
| CCOC(=O)c1cccn1S(=O)(=O)c1cc(C)ccc1[N+](=O)[O-] | > 20 |
| CC(C)OC(=O)c1cccn1S(=O)(=O)c1cc(Cl)ccc1N | 14 |

Test system: MT4
Experiment: Effective concentration against HIV-1 induced cytopathogenicity in MT-4 cells
Type: functional, cell-based
Conditions: Homo sapiens

| SMILES | EC50 [µM] |
| --- | --- |
| COC(=O)c1cccn1S(=O)(=O)c1ccccc1[N+](=O)[O-] | 5 |
| O=[N+]([O-])c1ccc(Cl)c(S(=O)(=O)n2cccc2)c1 | > 2 |
| O=[N+]([O-])c1cc(Cl)ccc1S(=O)(=O)n1ccc2ccccc21 | > 8 |
| COC(=O)c1cccn1S(=O)(=O)c1cc(N)ccc1Cl | 75 |
| CCOC(=O)c1cc2ccccc2n1S(=O)(=O)c1cc(Cl)ccc1N | 1.8 |
| COC(=O)c1cccn1S(=O)(=O)c1ccccc1N | 22 |
| CCOC(=O)c1cccn1S(=O)(=O)c1cc(Cl)ccc1NC(=O)CC | 1 |
| COC(=O)c1cccn1S(=O)(=O)c1cc(Cl)ccc1N | 0.18 |
| CCOC(=O)c1cccn1S(=O)(=O)c1cc([N+](=O)[O-])ccc1Cl | > 6 |
| C=CCOC(=O)c1cccn1S(=O)(=O)c1cc(Cl)ccc1[N+](=O)[O-] | > 4.3 |
| CCN(CC)CCOC(=O)c1cccn1S(=O)(=O)c1cc(Cl)ccc1N | 12 |
| CCOC(=O)c1cccn1S(=O)(=O)c1ccccc1N | 10 |
| CCOC(=O)c1cccn1S(=O)(=O)c1ccc(Cl)cc1[N+](=O)[O-] | 15 |
| CCOC(=O)c1cccn1S(=O)(=O)c1ccccc1[N+](=O)[O-] | 15 |
| Nc1ccc(Cl)cc1S(=O)(=O)n1cccc1C(=O)OCc1ccccc1 | 150 |
| CCOC(=O)c1cccn1S(=O)(=O)c1ccccc1F | 13 |

| SMILES | EC50 [µM] |
| --- | --- |
| CCOC(=O)c1cccn1S(=O)(=O)c1cc(C)ccc1N | 1.7 |
| CNc1ccccc1S(=O)(=O)n1cccc1 | > 300 |
| O=[N+]([O-])c1ccc(Cl)cc1S(=O)(=O)n1ccc2ccccc21 | > 2 |
| Nc1ccc(Cl)c(S(=O)(=O)n2cccc2)c1 | > 91 |
| Nc1cc(Cl)ccc1S(=O)(=O)n1cccc1 | > 75 |
| CCOC(=O)c1cccn1S(=O)(=O)c1cc(Cl)ccc1NC(C)=O | 1 |
| Nc1ccccc1S(=O)(=O)n1ccc2ccccc21 | 11 |
| O=C(O)c1cccn1S(=O)(=O)c1ccccc1Cl | 247 |
| CCCOC(=O)c1cccn1S(=O)(=O)c1cc(Cl)ccc1N | 0.22 |
| CCOC(=O)c1cccn1S(=O)(=O)c1cc(Cl)ccc1N | 0.14 |
| CCOC(=O)c1cccn1S(=O)(=O)c1cc(Cl)ccc1NC=O | 1 |
| CCOC(=O)CC(=O)Nc1ccc(Cl)cc1S(=O)(=O)n1cccc1C(=O)OCC | 2.6 |
| C=CCOC(=O)c1cccn1S(=O)(=O)c1cc(Cl)ccc1N | 0.4 |
| CCOC(=O)c1cccn1S(=O)(=O)c1cc(C)ccc1[N+](=O)[O-] | 9.8 |
| CC(C)OC(=O)c1cccn1S(=O)(=O)c1cc(Cl)ccc1N | 0.14 |

Biological target: Human immunodeficiency virus type 1 reverse transcriptase (Human immunodeficiency virus 1, UniProt Q72547)
Experiment: Inhibitory activity against HIV rRT activity in wild type IIIB strain
Conditions: not given

| SMILES | IC50 [µM] |
| --- | --- |
| CCOC(=O)c1cccn1S(=O)(=O)c1cc(Cl)ccc1NC(=O)CC | > 20 |
| COC(=O)c1cccn1S(=O)(=O)c1cc(Cl)ccc1N | 0.45 |
| CC(C)=CCN1Cc2cccc3nc(S)n(c23)C[C@H]1C | 0.9 |
| CCOC(=O)c1cccn1S(=O)(=O)c1cc(C)ccc1N | 4 |
| CCOC(=O)c1cccn1S(=O)(=O)c1cc(Cl)ccc1NC(C)=O | > 20 |
| CCCOC(=O)c1cccn1S(=O)(=O)c1cc(Cl)ccc1N | 0.4 |
| CCOC(=O)c1cccn1S(=O)(=O)c1cc(Cl)ccc1N | 0.4 |
| CCOC(=O)c1cccn1S(=O)(=O)c1cc(Cl)ccc1NC=O | > 20 |
| CCOC(=O)CC(=O)Nc1ccc(Cl)cc1S(=O)(=O)n1cccc1C(=O)OCC | > 20 |
| C=CCOC(=O)c1cccn1S(=O)(=O)c1cc(Cl)ccc1N | 0.9 |
| CCOC(=O)c1cccn1S(=O)(=O)c1cc(C)ccc1[N+](=O)[O-] | 5 |
| CC(C)OC(=O)c1cccn1S(=O)(=O)c1cc(Cl)ccc1N | 0.27 |

Biological target: Human immunodeficiency virus type 1 reverse transcriptase (Human immunodeficiency virus 1, UniProt Q72547, Y181C)
Experiment: Inhibitory activity against HIV rRT activity in mutant HIV-1 strain resistant to Nevirapine (Y181C)
Conditions: not given

| SMILES | IC50 [µM] |
| --- | --- |
| CCOC(=O)c1cccn1S(=O)(=O)c1cc(Cl)ccc1NC(=O)CC | > 20 |
| COC(=O)c1cccn1S(=O)(=O)c1cc(Cl)ccc1N | 6.9 |
| CC(C)=CCN1Cc2cccc3nc(S)n(c23)C[C@H]1C | 9 |
| CCOC(=O)c1cccn1S(=O)(=O)c1cc(C)ccc1N | > 20 |
| CCOC(=O)c1cccn1S(=O)(=O)c1cc(Cl)ccc1NC(C)=O | > 20 |
| CCCOC(=O)c1cccn1S(=O)(=O)c1cc(Cl)ccc1N | 5 |
| CCOC(=O)c1cccn1S(=O)(=O)c1cc(Cl)ccc1N | 7.5 |
| CCOC(=O)c1cccn1S(=O)(=O)c1cc(Cl)ccc1NC=O | > 20 |
| CCOC(=O)CC(=O)Nc1ccc(Cl)cc1S(=O)(=O)n1cccc1C(=O)OCC | > 20 |
| C=CCOC(=O)c1cccn1S(=O)(=O)c1cc(Cl)ccc1N | 14 |
| CCOC(=O)c1cccn1S(=O)(=O)c1cc(C)ccc1[N+](=O)[O-] | > 20 |
| CC(C)OC(=O)c1cccn1S(=O)(=O)c1cc(Cl)ccc1N | 8 |
